Assay results taken from patent US20260297081A1, “COMPOUNDS AND METHODS OF TREATING CANCERS” (Cullgen Inc., priority 2023, published 2026).

Tests used:
CDK4 = CDK4 (Homo sapiens, UniProt P11802+Q16531); assay: CDK4 percentage degradation in Calu-1 cells (Table 6); assay type: cell-based; design: Cells that express cyclin D1-3 and CDK4/6 proteins were treated with heterobifunctional compounds; endogenous in cells; host or cells: Calu-1; details: 16 hours; for inhibition at 0.04 µM: 40 nM; for inhibition at 0.2 µM: 200 nM
In short: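 Percentage degradation of Cyclin D1 and CDK4 derived from densitometry of ECL Western blots on lysates of Calu-1 cells. Treatment was 16 h with compound at either 40 nM or 200 nM.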

MCF7 cells = assay: Anti-proliferation (viability) of MCF7 cells (Table 7, FIG. 2B); assay type: cell-based; details: Homo sapiens, MCF7, MCF7 cells, 3-6 days, 10-point serial dilution; read-out: GI IC50 in MCF-7

Sequence of CDK4 (P11802 2-303 limits assumed): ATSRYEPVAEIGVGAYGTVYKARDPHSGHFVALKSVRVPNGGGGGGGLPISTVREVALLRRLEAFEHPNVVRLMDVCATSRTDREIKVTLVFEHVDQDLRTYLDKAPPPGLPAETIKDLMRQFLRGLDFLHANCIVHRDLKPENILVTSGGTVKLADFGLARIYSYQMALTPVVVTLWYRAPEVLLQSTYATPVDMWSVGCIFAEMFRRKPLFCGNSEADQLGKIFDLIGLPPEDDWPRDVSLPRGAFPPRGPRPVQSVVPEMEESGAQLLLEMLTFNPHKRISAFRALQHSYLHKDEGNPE
Sequence of CDK4 (P24385 whole entry partner): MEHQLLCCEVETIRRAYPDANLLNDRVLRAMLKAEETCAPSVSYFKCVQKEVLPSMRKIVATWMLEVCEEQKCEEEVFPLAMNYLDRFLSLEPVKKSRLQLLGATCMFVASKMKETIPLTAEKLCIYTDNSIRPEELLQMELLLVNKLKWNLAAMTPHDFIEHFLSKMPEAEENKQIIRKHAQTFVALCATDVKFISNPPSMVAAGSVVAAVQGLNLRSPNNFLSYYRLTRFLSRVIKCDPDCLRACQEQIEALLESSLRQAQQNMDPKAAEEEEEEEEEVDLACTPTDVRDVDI
Sequence of CDK4 (Q16531 2-1140 limits assumed): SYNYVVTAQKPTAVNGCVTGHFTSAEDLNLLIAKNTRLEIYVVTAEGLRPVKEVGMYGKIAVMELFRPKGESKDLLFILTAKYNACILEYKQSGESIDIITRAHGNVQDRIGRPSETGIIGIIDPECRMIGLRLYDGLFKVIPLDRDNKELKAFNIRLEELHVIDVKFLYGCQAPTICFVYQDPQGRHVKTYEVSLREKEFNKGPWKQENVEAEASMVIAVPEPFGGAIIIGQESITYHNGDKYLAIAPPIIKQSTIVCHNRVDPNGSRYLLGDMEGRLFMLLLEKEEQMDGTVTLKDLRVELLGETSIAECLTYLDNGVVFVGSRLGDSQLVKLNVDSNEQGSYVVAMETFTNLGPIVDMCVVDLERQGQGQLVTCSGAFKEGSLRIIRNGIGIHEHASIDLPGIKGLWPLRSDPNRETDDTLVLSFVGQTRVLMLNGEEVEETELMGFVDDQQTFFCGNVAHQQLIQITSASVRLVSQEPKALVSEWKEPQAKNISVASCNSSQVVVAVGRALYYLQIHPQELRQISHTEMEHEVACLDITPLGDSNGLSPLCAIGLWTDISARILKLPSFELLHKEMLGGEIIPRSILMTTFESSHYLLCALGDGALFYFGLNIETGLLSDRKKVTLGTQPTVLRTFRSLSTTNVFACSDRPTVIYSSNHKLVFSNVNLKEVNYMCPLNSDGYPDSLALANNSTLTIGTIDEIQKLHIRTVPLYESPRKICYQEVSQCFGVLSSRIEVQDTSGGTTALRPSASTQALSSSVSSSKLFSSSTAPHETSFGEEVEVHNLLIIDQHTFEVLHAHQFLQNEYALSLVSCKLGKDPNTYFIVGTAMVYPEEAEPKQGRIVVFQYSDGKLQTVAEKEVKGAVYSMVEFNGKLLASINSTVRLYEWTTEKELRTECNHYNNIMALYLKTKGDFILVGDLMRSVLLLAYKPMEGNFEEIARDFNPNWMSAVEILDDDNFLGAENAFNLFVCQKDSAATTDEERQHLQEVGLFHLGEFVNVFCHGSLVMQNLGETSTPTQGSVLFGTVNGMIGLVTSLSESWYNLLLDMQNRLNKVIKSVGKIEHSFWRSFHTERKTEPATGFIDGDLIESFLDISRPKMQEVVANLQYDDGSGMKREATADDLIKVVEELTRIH

| inhibition at 0.04 µM (CDK4) | inhibition at 0.2 µM (CDK4) | IC50 (MCF7 cells) | SMILES |
| --- | --- | --- | --- |
| 50 to 80% | 50 to 80% | > 100 nM | CNc1ccc(C(=O)Nc2cn(C)c(C3CC3)n2)c(NC2CC(NC(=O)CN3CCN(c4ccc(Nc5ncc6c(C)c(C(C)=O)c(=O)n(C7CCCC7)c6n5)nc4)CC3)C2)n1 (stereo not drawn) [CPD-217, 2-((3-(2-(4-(6-((6-acetyl-8-cyclopentyl-5-methyl-7-oxo-7,8-dihydropyrido[2,3-d]pyrimidin-2-yl)amino)pyridin-3-yl)piperazin-1-yl)acetamido)cyclobutyl)amino)-N-(2-cyclopropyl-1-methyl-1H-imidazol-4-yl)-6-(methylamino)nicotinamide] |
| 50 to 80% | 50 to 80% | > 100 nM | CNc1ccc(C(=O)Nc2ccc(F)c(C)n2)c(NC2CC3(CC(NC(=O)CN4CCN(c5ccc(Nc6ncc7c(C)c(C(C)=O)c(=O)n(C8CCCC8)c7n6)nc5)CC4)C3)C2)n1 (stereo not drawn) [CPD-221, 2-((6-(2-(4-(6-((6-acetyl-8-cyclopentyl-5-methyl-7-oxo-7,8-dihydropyrido[2,3-d]pyrimidin-2-yl)amino)pyridin-3-yl)piperazin-1-yl)acetamido)spiro[3.3]heptan-2-yl)amino)-N-(5-fluoro-6-methylpyridin-2-yl)-6-(methylamino)nicotinamide] |
| 50 to 80% | 50 to 80% | 50 to 100 nM | CNc1ccc(C(=O)Nc2ccc(N(C)C)nn2)c(N[C@H]2CC[C@H](NC(=O)CCN3CCN(c4ccc(Nc5ncc6c(C)c(C(C)=O)c(=O)n(C7CCCC7)c6n5)nc4)CC3)CC2)n1 [CPD-223, 2-((trans-4-(3-(4-(6-((6-acetyl-8-cyclopentyl-5-methyl-7-oxo-7,8-dihydropyrido[2,3-d]pyrimidin-2-yl)amino)pyridin-3-yl)piperazin-1-yl)propanamido)cyclohexyl)amino)-N-(6-(dimethylamino)pyridazin-3-yl)-6-(methylamino)nicotinamide] |
| 30 to 50% | 30 to 50% | < 50 nM | CNc1ccc(C(=O)Nc2ccc(N(C)C)nn2)c(NC2CC3(C2)CN(C(=O)CC(C)N2CCN(c4ccc(Nc5ncc6c(C)c(C(C)=O)c(=O)n(C7CCCC7)c6n5)nc4)CC2)C3)n1 (stereo not drawn) [CPD-224, 2-((2-(3-(4-(6-((6-acetyl-8-cyclopentyl-5-methyl-7-oxo-7,8-dihydropyrido[2,3-d]pyrimidin-2-yl)amino)pyridin-3-yl)piperazin-1-yl)butanoyl)-2-azaspiro[3.3]heptan-6-yl)amino)-N-(6-(dimethylamino)pyridazin-3-yl)-6-(methylamino)nicotinamide] |
| 30 to 50% | 50 to 80% | 50 to 100 nM | [2H]C([2H])([2H])Nc1ccc(C(=O)Nc2cccc(C)n2)c(NC2CC3(CC(NC(=O)CN4CCN(c5ccc(Nc6ncc7c(C)c(C(C)=O)c(=O)n(C8CCCC8)c7n6)nc5)CC4)C3)C2)n1 (stereo not drawn) [CPD-232, 2-((6-(2-(4-(6-((6-acetyl-8-cyclopentyl-5-methyl-7-oxo-7,8-dihydropyrido[2,3-d]pyrimidin-2-yl)amino)pyridin-3-yl)piperazin-1-yl)acetamido)spiro[3.3]heptan-2-yl)amino)-6-((methyl-d3)amino)-N-(6-methylpyridin-2-yl)nicotinamide] |
| 50 to 80% | 50 to 80% | > 100 nM | [2H]C([2H])([2H])Nc1ccc(C(=O)Nc2cn(C)c(C3CC3)n2)c(NC2CC3(CC(NC(=O)CN4CCN(c5ccc(Nc6ncc7c(C)c(C(C)=O)c(=O)n(C8CCCC8)c7n6)nc5)CC4)C3)C2)n1 (stereo not drawn) [CPD-237, 2-((6-(2-(4-(6-((6-acetyl-8-cyclopentyl-5-methyl-7-oxo-7,8-dihydropyrido[2,3-d]pyrimidin-2-yl)amino)pyridin-3-yl)piperazin-1-yl)acetamido)spiro[3.3]heptan-2-yl)amino)-N-(2-cyclopropyl-1-methyl-1H-imidazol-4-yl)-6-((methyl-d3)amino)nicotinamide] |
| 50 to 80% | 50 to 80% | 50 to 100 nM | [2H]C([2H])([2H])Nc1ccc(C(=O)Nc2ccc(N(C)C)nn2)c(NC2CC3(CC(NC(=O)CN4CCN(c5ccc(Nc6ncc7c(C)c(C(C)=O)c(=O)n(C8CCCC8)c7n6)nc5)CC4)C3)C2)n1 (stereo not drawn) [CPD-241, 2-((6-(2-(4-(6-((6-acetyl-8-cyclopentyl-5-methyl-7-oxo-7,8-dihydropyrido[2,3-d]pyrimidin-2-yl)amino)pyridin-3-yl)piperazin-1-yl)acetamido)spiro[3.3]heptan-2-yl)amino)-N-(6-(dimethylamino)pyridazin-3-yl)-6-((methyl-d3)amino)nicotinamide] |
| 50 to 80% | 50 to 80% | > 100 nM | CNc1ccc(C(=O)Nc2ccc(N(C)C)nn2)c(NC2CC(NC(=O)C(C)N3CCN(c4ccc(Nc5ncc6c(C)c(C(C)=O)c(=O)n(C7CCCC7)c6n5)nc4)CC3)C2)n1 (stereo not drawn) [CPD-242, 2-((3-(2-(4-(6-((6-acetyl-8-cyclopentyl-5-methyl-7-oxo-7,8-dihydropyrido[2,3-d]pyrimidin-2-yl)amino)pyridin-3-yl)piperazin-1-yl)propanamido)cyclobutyl)amino)-N-(6-(dimethylamino)pyridazin-3-yl)-6-(methylamino)nicotinamide] |
| 30 to 50% | 50 to 80% | 50 to 100 nM | [2H]C([2H])([2H])Nc1ccc(C(=O)Nc2cc(C)n(C)n2)c(NC2CC3(CC(NC(=O)CN4CCN(c5ccc(Nc6ncc7c(C)c(C(C)=O)c(=O)n(C8CCCC8)c7n6)nc5)CC4)C3)C2)n1 (stereo not drawn) [CPD-244, 2-((6-(2-(4-(6-((6-acetyl-8-cyclopentyl-5-methyl-7-oxo-7,8-dihydropyrido[2,3-d]pyrimidin-2-yl)amino)pyridin-3-yl)piperazin-1-yl)acetamido)spiro[3.3]heptan-2-yl)amino)-N-(1,5-dimethyl-1H-pyrazol-3-yl)-6-((methyl-d3)amino)nicotinamide] |
| 30 to 50% | 50 to 80% | 50 to 100 nM | [2H]C([2H])([2H])Nc1ccc(C(=O)Nc2ccc(N(C)C)nn2)c(NC2CCN(C(=O)CN3CCN(c4ccc(Nc5ncc6c(C)c(C(C)=O)c(=O)n(C7CCCC7)c6n5)nc4)CC3)CC2)n1 [CPD-250, 2-((1-(2-(4-(6-((6-acetyl-8-cyclopentyl-5-methyl-7-oxo-7,8-dihydropyrido[2,3-d]pyrimidin-2-yl)amino)pyridin-3-yl)piperazin-1-yl)acetyl)piperidin-4-yl)amino)-N-(6-(dimethylamino)pyridazin-3-yl)-6-((methyl-d3)amino)nicotinamide] |
| < 30% | < 30% | 50 to 100 nM | CNc1ccc(C(=O)Nc2ccc(N(C)C)nn2)c(NC2CCN(C(=O)CN3CCN(Cc4ccc(Nc5ncc6c(C)c(C(C)=O)c(=O)n(C7CCCC7)c6n5)nc4)CC3)CC2)n1 [CPD-300, 2-((1-(2-(4-((6-((6-acetyl-8-cyclopentyl-5-methyl-7-oxo-7,8-dihydropyrido[2,3-d]pyrimidin-2-yl)amino)pyridin-3-yl)methyl)piperazin-1-yl)acetyl)piperidin-4-yl)amino)-N-(6-(dimethylamino)pyridazin-3-yl)-6-(methylamino)nicotinamide] |
